What was measured:
Psm ES4326 = assay: Bacterial infection assay: SA- and MAMP-induced resistance to Psm ES4326 in Arabidopsis plants; type: in vivo, Pseudomonas syringae pv. maculicola; details: 1 mM SA spray 24 hrs prior to infection, Psm ES4326 OD600nm=0.001
Protocol: Infection of Arabidopsis plants with Pseudomonas syringae pv. maculicola (Psm) ES4326 was performed as described previously. To test for enhanced disease susceptibility, a bacterial suspension at OD600nm=0.0001 was infiltrated into 2-3 leaves per plant and 12 plants/genotype. Bacterial growth was quantified 3 days later. To test for SAR and MAMP-induced resistance, plants were pre-treated with relevant compounds (1 mM SA, spray 24 hrs prior to infection; 10 μM elf18, infiltration 2 hrs prior to infection; 10 μM flg22, infiltration 2 hrs prior to infection), and subsequently inoculated with Psm ES4326 (OD600nm=0.001) into 2-3 leaves per plant and 12 plants/genotype/treatment. Sampling was performed 3 days post inoculation.

Arabidopsis seedlings [1] = assay: Seedling growth (fresh weight) on MS media supplemented with SA, elf18 or flg22; type: in vivo; details: WT plants; 10 days on MS with increasing concentrations of SA or 10 μM elf18
Protocol: (Panel 11A) Fresh weight of ten seedlings grown for 10 days on plates with MS growth media (Ctrl), MS supplemented with increasing concentrations of SA or 10 μM elf18. Error bars represent the standard deviation of three replicates. This experiment was repeated three times with similar results. Statistical analysis was performed using the Student's t-test, *, p-value<0.05, **, p-value<0.01, ***, p-value≤0.001.
Fresh weight of ten seedlings grown for 10 days on plates with regular MS growth media (−f1g22) or MS supplemented with 10 μM f1g22 (+f1g22). Error bars represent standard deviation of three replicates. The experiment was repeated three times with similar results.

TBF1 promoter = assay: Induction of the TBF1 promoter by chemical inducers
Arabidopsis seedlings [2] = assay: Tunicamycin sensitivity assay (seedling recovery/survival); type: in vivo; details: two-day treatment with tunicamycin at 300 μg/L, measured 10 days later
Protocol: (Panel 11B) Seedling recovery after a two-day treatment with the UPR inducer tunicamycin at 300 μg/L was measured 10 days later by counting the percentage of surviving seedlings (left), and by phenotype observations (right). Error bars represent standard deviation of three replicates. This experiment was repeated five times with similar results. Statistical analysis was performed using the Student's t-test, ***, p-value≤0.001.
This assay was performed as described in earlier studies.

Row | Compound | induction of the TBF1 promoter (TBF1 promoter) | other results
1 | O=C(O)c1ccccc1O [SA, salicylic acid] | shown to induce the TBF1 promoter | reduction in Psm ES4326 growth in response to induction by SA (Psm ES4326; WT plants, 3 days post inoculation): ~2 log; reduction in Psm ES4326 growth in response to induction by SA (Psm ES4326; tbf1 mutant): less than 1 log; growth of seedlings (fresh weight) (Arabidopsis seedlings [1]): significantly inhibited
2 | C[C@@H]1C[C@@H]([C@H](O)CC2CC(=O)NC(=O)C2)C(=O)[C@@H](C)C1 [cycloheximide] | shown to induce the TBF1 promoter | –
3 | C=C [ethylene] | shown to induce the TBF1 promoter | –
4 | tunicamycin | – | seedling survival rate (Arabidopsis seedlings [2]; WT): ~60%; seedling survival rate (Arabidopsis seedlings [2]; tbf1 mutant): ~20%
5 | [Cl-].[Na+] [NaCl] | shown to induce the TBF1 promoter | –
6 | CC/C=C\CC1C(=O)CCC1CC(=O)OC (centres unmarked) [methyl ester of jasmonic acid] | shown to induce the TBF1 promoter | –
7 | CC/C=C\C[C@H]1C(=O)CC[C@@H]1CC(=O)O [jasmonic acid] | shown to induce the TBF1 promoter | –
8 | O=[N+]([O-])[O-].[Ag+] [AgNO3] | shown to induce the TBF1 promoter | –
9 | CC1=CC(=O)CC(C)(C)[C@@]1(O)/C=C/C(C)=C\C(=O)O [abscisic acid] | shown to induce the TBF1 promoter | –
10 | OC[C@@H](O)[C@@H](O)[C@H](O)[C@H](O)CO [mannitol] | shown to induce the TBF1 promoter | –

Reference: patent publication US10584346B2, “HSF-like transcription factor, TBF1, is a major molecular switch for growth-to-defense transition in plants” (Duke University, priority 2011, dated 2020)
